According to patent publication US9296760B2, “Antibacterial compounds” (JANSSEN SCIENCES IRELAND UC, priority 2012, dated 2016):
Values after ≈ are worked out from the molar mass of the structure shown.

Columns and labels:
[1] = target: T1, S. aureus ATCC 29213 FabI (Staphylococcus aureus, UniProt Q6GI75); experiment: Staphylococcus aureus FabI enzyme inhibition assay; assay type: biochemical; details: NADH consumption, 30 minutes, read-out: FabI (300.235) IC50 (converted)
T1 sequence (Q6GI75 1-256): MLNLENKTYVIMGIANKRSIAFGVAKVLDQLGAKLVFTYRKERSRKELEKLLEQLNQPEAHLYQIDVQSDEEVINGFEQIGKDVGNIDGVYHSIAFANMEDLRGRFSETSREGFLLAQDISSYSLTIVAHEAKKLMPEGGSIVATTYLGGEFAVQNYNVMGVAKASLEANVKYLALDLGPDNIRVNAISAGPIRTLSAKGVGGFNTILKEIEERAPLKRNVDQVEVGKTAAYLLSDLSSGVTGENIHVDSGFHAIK
Description: Y.1 FabI Enzyme Inhibition: Staphylococcus aureus FabI Enzyme Inhibition Assay
FabI enzyme inhibition assays were carried out in half-area, 384-well microtitre plates. […] The reaction mixtures were incubated for 30 minutes at room temperature and the reaction was stopped by adding 200 mM Tris buffer (pH 9.0) to create a pH-shift. The consumption of NADH was monitored by measuring the change in absorbance at […]. By comparing sample readings to those of negative (absence of compound) and positive (absence of enzyme) controls, the percent inhibition of enzymatic activity of the compounds was determined A best-fit curve is fitted by a minimum of squares method. From this an IC50-value (expressed in μg/ml), resulting in 50% inhibition of enzymatic activity, was obtained.

S. aureus = experiment: Antibacterial susceptibility testing, IC90 determination with 10% human serum; assay type: cell-based, Staphylococcus aureus; details: Staphylococcus aureus, S. aureus with human serum at final concentration of 10%; read-out: STA + 10% HS (361.169) IC90
Description: (§1) Antibacterial Susceptibility Testing: IC90 Determination MIC assays were performed by the broth microdilution method in a 96-well format (flat-bottom microtitre plates) with a final volume of 0.1 ml Mueller Hinton broth containing two-fold serial dilutions of compounds and inoculated with 5×10^5 CFU/ml of bacteria (standard inoculum size according to CLSI guidelines). Inhibitors are typically varied over the range of 63 to 0.49 μM. The final DMSO concentration in the assay was 1.25% (maximum tolerable DMSO concentration=6%). In the assays where the effect of human serum on the activity of the compounds against S. aureus was tested, human serum was added at a final concentration of 10%. The plates were incubated at 35° C. for 16-20 hours. At the end of incubation the bacterial growth was quantified fluorometrically. For this, resazurin was added to all wells and the plates were re-incubated. The incubation time is dependent on the type of bacteria. A change in color from blue to pink indicated the growth of bacteria. The fluorescence was read in computer-controlled fluorometer (Fluoroskan Ascent FL, Labsystems) at an excitation wavelength 540 nm and an emission wavelength of 590 nm. The % growth inhibition achieved by the compounds was calculated according to standard methods. The IC90 (expressed in μg/ml) was defined as the 90% inhibitory concentration for bacterial growth. A panel of reference compounds were simultaneously tested for QC approval. The results are depicted in the table(s) below (STA+10% HS).

[2] = tested on: Staphylococcus aureus ATCC 29213; experiment: Antibacterial susceptibility testing, IC90 determination (broth microdilution, resazurin); assay type: cell-based; details: Staphylococcus aureus, ATCC29213, S. aureus ATCC 29213; 90% inhibitory concentration for bacterial growth; read-out: STA (361.159) IC90
Description: Y.2 In Vitro Method for Testing Compounds for Antibacterial Activity Against Various Bacterial Strains
Preparation of Bacterial Suspensions for Susceptibility Testing
The following bacteria were used: Staphylococcus aureus ATCC 29213, methicillin-resistant Staphylococcus aureus (MRSA) ATCC 700788 and Escherichia coli ATCC 35218. The bacteria used in this study were grown overnight in flasks containing 100 ml Mueller-Hinton broth (Difco cat. nr. 0757-17) in sterile de-ionized water, with shaking, at 37° C. Stocks were store at −70° C. until use.
Bacteria were incubated on a tryptic soy agar plate containing 5% sheep blood (Becton Dickinson cat. nr. 254053) for 18-24 hours at 35° C. in aerobic conditions (first passage). For the second passage, fresh Mueller-Hinton broth is inoculated with 5-10 colonies and grown overnight at 35° C. until turbidity (reaching log-phase) in aerobic conditions is reached. The bacterial suspension is then adjusted to 0.5 McFarland density and further diluted 1:100 in Mueller Hinton broth medium. This is used as inoculum.
The result(s) are depicted the table below (for STA ATCC 29213).
Antibacterial Susceptibility Testing: IC90 Determination
as §1, with “MIC” for “Antibacterial Susceptibility Testing: IC90 Determination MIC”, “approval.” for “approval. The results are depicted in the table(s) below (STA+10% HS).”

Cytotoxicity MTT assay = assay type: cell-based, Human; details: human, HelaM cells, read-out: HELAM (222.125) CC50
Description: Cytotoxicity of the compounds was evaluated using the MTT assay. Human HelaM cells grown in 96-well plates were exposed to serial dilutions of the tested compounds (final volume of 0.2 ml) and incubated for 72 hours at 37° C. and 5% CO2 Inhibitors are typically varied over the range of 25 to 0.8 μM. The final DMSO concentration in the assay is 0.5%. MTT (3-(4,5-Dimethylthiazol-2-yl)-2,5-diphenyltetrazolium bromide, a tetrazole) was added and reduced to purple formazan only in living cells. Solubilization of the formazan crystals was achieved by adding 100 μl 2-propanol. Cell viability was determined by measuring the absorbance of the reduced formazan, giving a purple color, at 540 nm and 690 nm. The absorbance measured at 690 nm was automatically subtracted from the absorbance at 540 nm, to eliminate the effects of non-specific absorption. The percent cytotoxicity achieved by the compounds was calculated according to standard methods. Cytotoxicity is reported as CC50, the concentration that causes a 50% reduction in cell viability.
The results are depicted in the table(s) below (HELAM).

Row | SMILES | IC50 [1] | IC90 (S. aureus) | IC90 [2] | CC50 at 72 h (Cytotoxicity MTT assay) | melting point
1 | CC(C)(C)C(=O)Nc1ccc(/C=C/C(=O)N2CCC=C(c3ccccc3)CC2)cn1 [compound 25] | 2030 nM | > 25.5 µg/mL | > 25.5 µg/mL | 6.32 µg/mL (≈ 15.7 µM) | –
2 | O=C(Nc1ccc(/C=C/C(=O)N2CCC=C(c3ccccc3)CC2)cn1)c1ccncc1 [compound 13] | 1250 nM | 3.08 µg/mL | 1.41 µg/mL (≈ 3.32 µM) | 4.29 µg/mL (≈ 10.1 µM) | 98 °C
3 | CC(C)CC(=O)Nc1ccc(/C=C/C(=O)N2CCC=C(c3ccccc3)CC2)cn1 [compound 26] | 1390 nM | > 25.5 µg/mL | > 25.5 µg/mL | 3.77 µg/mL (≈ 9.34 µM) | –
4 | Cn1cc(C(=O)Nc2ccc(/C=C/C(=O)N3CCC=C(c4ccccc4)CC3)cn2)cn1 [compound 4] | 1400 nM | 1.66 µg/mL | 0.63 µg/mL (≈ 1.47 µM) | 3.94 µg/mL (≈ 9.22 µM) | –
5 | CC(=O)Nc1ccc(/C=C/C(=O)N2CC=C(c3ccccc3)CCC2)cn1 [compound 12] | 609 nM | 1.9 µg/mL | 1.3 µg/mL (≈ 3.6 µM) | > 9.08 µg/mL | 188 °C
6 | CC(=O)Nc1ccc(/C=C/C(=O)N2CCC=C(c3ccccc3)CC2)cn1 [compound 6] | ~802 nM | 1.9 µg/mL | 0.69 µg/mL (≈ 1.91 µM) | > 9.08 µg/mL | 152 °C
7 | CC(=O)N1CC(=O)Nc2ncc(/C=C/C(=O)N3CCC=C(c4ccccc4)CC3)cc2C1 [compound 39] | 743 nM | 0.75 µg/mL | 0.51 µg/mL (≈ 1.18 µM) | > 10.8 µg/mL | –
8 | Cn1cnc(C(=O)Nc2ccc(/C=C/C(=O)N3CCC=C(c4ccccc4)CC3)cn2)c1 [compound 17] | 2410 nM | 8.56 µg/mL | 4.29 µg/mL (≈ 10 µM) | 13.9 µg/mL (≈ 32.5 µM) | 134 °C
9 | CN1CC(=O)Nc2ncc(/C=C/C(=O)N3CC=C(c4cccs4)CCC3)cc2C1 [compound 43] | 2620 nM | 1.32 µg/mL | 1.13 µg/mL (≈ 2.77 µM) | > 10.3 µg/mL | 212 to 213 °C
10 | O=C1Nc2ncc(/C=C/C(=O)N3CCC=C(c4ccccc4)CC3)cc2CN2CCNCC12 (stereo not shown) [compound 52] | 21400 nM | 4.75 µg/mL | 6.56 µg/mL (≈ 14.8 µM) | > 11.1 µg/mL | 206 °C
11 | O=C(/C=C/c1ccc(NC(=O)C(F)(F)F)nc1)N1CCC=C(c2ccccc2)CC1 [compound 22] | 1080 nM | 12.1 µg/mL | 11.6 µg/mL (≈ 27.9 µM) | 8.01 µg/mL (≈ 19.3 µM) | 159 °C
12 | O=C(Nc1ccc(/C=C/C(=O)N2CCC=C(c3ccccc3)CC2)cn1)C1CCCCC1 [compound 29] | 3100 nM | > 27.1 µg/mL | > 27.1 µg/mL | 3.15 µg/mL (≈ 7.33 µM) | –
13 | CC(C)Nc1ccc(/C=C/C(=O)N2CCC=C(c3ccccc3)CC2)cn1 [compound 24] | 5260 nM | > 22.8 µg/mL | 21 µg/mL (≈ 58.2 µM) | > 9.08 µg/mL | –
14 | COc1ccc(CN2CC(=O)Nc3ncc(/C=C/C(=O)N4CCC=C(c5ccccc5)CC4)cc3C2)cc1 [compound 44] | ~2810 nM | 3.64 µg/mL | 4.8 µg/mL (≈ 9.44 µM) | > 12.8 µg/mL | 198 °C
15 | Cc1occc1C(=O)Nc1ccc(/C=C/C(=O)N2CCC=C(c3ccccc3)CC2)cn1 [compound 8] | 2130 nM | 6.7 µg/mL | 0.84 µg/mL (≈ 1.96 µM) | 5.64 µg/mL (≈ 13.2 µM) | 192 °C
16 | CC1(C(=O)Nc2ccc(/C=C/C(=O)N3CCC=C(c4ccccc4)CC3)cn2)CC1 [compound 15] | ~1070 nM | 11.8 µg/mL | 2.84 µg/mL (≈ 7.07 µM) | 6.59 µg/mL (≈ 16.4 µM) | –
17 | O=CNc1ccc(/C=C/C(=O)N2CCC=C(c3ccccc3)CC2)cn1 [compound 7] | 662 nM | 1.25 µg/mL | 0.78 µg/mL (≈ 2.25 µM) | 7.18 µg/mL (≈ 20.7 µM) | –
18 | O=C(Nc1ccc(/C=C/C(=O)N2CCC=C(c3ccccc3)CC2)cn1)c1ccccn1 [compound 27] | 2100 nM | > 26.8 µg/mL | > 26.8 µg/mL | 3.83 µg/mL (≈ 9.02 µM) | –
19 | Nc1ccc(/C=C/C(=O)N2CCC=C(c3ccccc3)CC2)cn1 [compound 23] | 3010 nM | > 20.1 µg/mL | 13.3 µg/mL (≈ 41.7 µM) | 5.3 µg/mL (≈ 16.6 µM) | –
20 | CS(=O)(=O)N1CC(=O)Nc2ncc(/C=C/C(=O)N3CCC=C(c4ccccc4)CC3)cc2C1 [compound 37] | 686 nM | 0.66 µg/mL | 0.48 µg/mL (≈ 1.03 µM) | 2.04 µg/mL (≈ 4.37 µM) | –
21 | O=C1Nc2ncc(/C=C/C(=O)N3CCC=C(c4ccccc4)CC3)cc2CN2CCSCC12 (stereo not shown) [Compound K1] | – | – | – | – | 224 °C
22 | O=C(Nc1ccc(/C=C/C(=O)N2CCC=C(c3ccccc3)CC2)cn1)c1cnccn1 [compound 28] | 1200 nM | 26.2 µg/mL | > 26.8 µg/mL | > 10.7 µg/mL | –
23 | COc1ccc(F)cc1C1=CCCN(C(=O)/C=C/c2cnc3c(c2)CN2CCN(C(C)=O)CC2C(=O)N3)CC1 (stereo not shown) [compound 48] | 1110 nM | 0.46 µg/mL | < 0.26 µg/mL | > 13.4 µg/mL | –
24 | O=C1CN(c2ccccc2)Cc2cc(/C=C/C(=O)N3CCC=C(c4ccccc4)CC3)cnc2N1 [compound 42] | ~1510 nM | 3.33 µg/mL | 0.77 µg/mL (≈ 1.66 µM) | 11.7 µg/mL (≈ 25.1 µM) | –
25 | O=C(Nc1ccc(/C=C/C(=O)N2CCC=C(c3ccccc3)CC2)cn1)C1CCCO1 (stereo not shown) [compound 30] | ~1760 nM | 33.3 µg/mL | 27.7 µg/mL (≈ 66.3 µM) | 11 µg/mL (≈ 26.4 µM) | –
